Patent US9682980B2, “Positive allosteric modulators of mGluR2” (BRISTOL-MYERS SQUIBB COMPANY, priority 2012, dated 2017)

Target: human mGluR2 (Homo sapiens (Human), UniProt Q14416)
Assay: MGluR2 cAMP assay
Type: cell-based
Conditions: HEK293 cells clonally expressing human mGluR2, 1 μM forskolin, 1 μM LY-341495
Protocol: Clonally expressed human mGluR2 in HEK293 background was glutamate starved overnight in media without glutamine (GIBCO MEM 12360), containing 10% FBS, 1% penicillin streptomycin.
On the day of the assay, media was removed, cells washed with PBS, cells harvested and pelleted by centrifugation. Cell pellets were resuspended in stimulation buffer without forskolin and counted. A solution of 1.25×10^6 cells/ml was prepared and dispensed to plates using a Combi liquid handler (Thermo). A standard curve was created using a top concentration of cAMP of 1 μM in the stimulation buffer, 1:3 dilutions over 14 points in the absence of cells. Plates were read by time-resolved fluorescence at […] and a ratio was calculated via in house software, (665 nM/618 nM)*10^4. In house software converted the fluorescence value ratios to units of cAMP concentration, which is then used to calculate % inhibition for each test compound.
Compounds were added to white, standard volume 384 non-binding surface plates (Corning 3574). Cells were resuspended in stimulation buffer consisting of Hanks Balanced Salt Solution (14175-095) pH 7.0, 20 mM HEPES, 2.0 mM CaCl2, 5.0 mM MgCl2, and 1 mM IBMX (Sigma 15879), 1 μM forskolin, and 1 μM LY-341495, for 30 minutes. Buffer without forskolin was used as a negative control. Solutions of D2 and cryptate detection reagents from the CISBIO dynamic cAMP kit (62AM4PEJ) were diluted 1:40 in lysis buffer. Lysis buffer consisted of 50 mM Phosphate Buffer pH 7.0, 800 mM Potassium Fluoride, 0.2% BSA, and 1.0% Triton. Assay reaction was terminated by addition of detection reagents in lysis buffer. One hour later, plates were read on a PE Viewlux. Data was extracted, and concentration response curves generated by fitting the data to a standard 4 parameter logistic equation from which EC50 values were determined See table 1: A: <10 nM; B: 10-100 nM; C: 100-1000 nM; D: 1000-10000 nM.

Sequence of human mGluR2 (Q14416 19-872): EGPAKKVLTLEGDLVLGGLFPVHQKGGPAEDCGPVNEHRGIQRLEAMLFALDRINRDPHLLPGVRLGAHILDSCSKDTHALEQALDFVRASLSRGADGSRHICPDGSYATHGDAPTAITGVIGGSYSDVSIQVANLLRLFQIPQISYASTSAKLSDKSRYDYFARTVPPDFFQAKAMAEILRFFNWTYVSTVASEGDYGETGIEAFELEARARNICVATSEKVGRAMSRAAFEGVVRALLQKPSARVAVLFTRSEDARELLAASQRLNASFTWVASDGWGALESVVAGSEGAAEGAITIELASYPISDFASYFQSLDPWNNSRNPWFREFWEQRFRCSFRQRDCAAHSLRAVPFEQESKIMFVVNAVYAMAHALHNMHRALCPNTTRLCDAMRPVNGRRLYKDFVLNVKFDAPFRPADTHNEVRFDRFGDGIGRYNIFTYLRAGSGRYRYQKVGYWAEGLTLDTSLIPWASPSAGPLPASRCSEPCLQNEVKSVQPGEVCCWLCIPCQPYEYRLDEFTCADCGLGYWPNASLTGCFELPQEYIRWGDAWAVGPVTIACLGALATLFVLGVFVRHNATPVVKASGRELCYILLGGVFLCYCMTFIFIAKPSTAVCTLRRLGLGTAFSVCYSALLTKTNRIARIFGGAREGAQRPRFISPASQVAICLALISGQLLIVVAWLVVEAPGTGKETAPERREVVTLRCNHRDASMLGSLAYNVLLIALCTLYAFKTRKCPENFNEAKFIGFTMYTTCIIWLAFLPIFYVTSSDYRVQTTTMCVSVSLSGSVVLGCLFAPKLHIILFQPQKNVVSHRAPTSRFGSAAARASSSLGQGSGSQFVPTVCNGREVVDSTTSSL

Row | SMILES | EC50 [nM]
1 | Fc1ccc(C2CCN(c3cnn4c(CC(F)(F)F)nnc4c3Cl)CC2)c(F)c1 [Example 75, 8-Chloro-7-(4-(2,4-difluorophenyl)piperidin-1-yl)-3-(2,2,2-trifluoroethyl)-[1,2,4]triazolo[4,3-b]pyridazine] | 16
2 | COc1cccc(F)c1C1CCN(c2cnn3c(CC4CC4)nnc3c2C(F)(F)F)CC1 [Example 70, 3-(Cyclopropylmethyl)-7-(4-(2-fluoro-6-methoxyphenyl)piperidin-1-yl)-8-(trifluoromethyl)-[1,2,4]triazolo[4,3-b]pyridazine] | 3
3 | COc1cccc(C2CCN(c3cnn4c(CC5CC5)nnc4c3Cl)CC2)c1 [Example 28, 8-Chloro-3-(cyclopropylmethyl)-7-(4-(3-methoxyphenyl)piperidin-1-yl)-[1,2,4]triazolo[4,3-b]pyridazine] | 38
4 | Fc1ccccc1C1CCN(c2ncn3c(CC(F)(F)F)nnc3c2Cl)CC1 [Example 67, 8-Chloro-7-(4-(2-fluorophenyl)piperidin-1-yl)-3-(2,2,2-trifluoroethyl)-[1,2,4]triazolo[4,3-c]pyrimidine] | 5
5 | Fc1ccc([C@H]2C[C@@H]2CNc2cnn3c(CC4CC4)nnc3c2Cl)cc1 [Example 11, 8-Chloro-3-(cyclopropylmethyl)-N-(((1S,2S)-2-(4-fluorophenyl)cyclopropyl)methyl)-[1,2,4]triazolo[4,3-b]pyridazin-7-amine] | 60
6 | FC(F)(F)Cc1nnc2c(Cl)c(NC3CCC(c4ccccc4)CC3)cnn12 (stereo not shown) [Example 64, 8-Chloro-N-(4-phenylcyclohexyl)-3-(2,2,2-trifluoroethyl)-[1,2,4]triazolo[4,3-b]pyridazin-7-amine] | 733
7 | Fc1cc(OC(F)F)c(C2CCN(c3cnn4c(CC5CC5)nnc4c3Cl)CC2)cc1F [Example 52, 8-Chloro-3-(cyclopropylmethyl)-7-(4-(2-(difluoromethoxy)-4,5-difluorophenyl)piperidin-1-yl)-[1,2,4]triazolo[4,3-b]pyridazine] | 8
8 | COc1c(N2CCC(c3ccc(F)cc3)CC2)ncn2c(CC3CC3)nnc12 [Example 12, 3-(Cyclopropylmethyl)-7-(4-(4-fluorophenyl)piperidin-1-yl)-8-methoxy-[1,2,4]triazolo[4,3-c]pyrimidine] | 519
9 | COc1cccc(F)c1C1CC1CNc1cnn2c(CC(F)(F)F)nnc2c1Cl (stereo not shown) [Example 40, 8-Chloro-N-((2-(2-fluoro-6-methoxyphenyl)cyclopropyl)methyl)-3-(2,2,2-trifluoroethyl)-[1,2,4]triazolo[4,3-b]pyridazin-7-amine] | 31
10 | Fc1ccccc1C1CCN(c2cnn3c(CC4CC4)nnc3c2C(F)(F)F)CC1 [Example 84, 3-(Cyclopropylmethyl)-7-(4-(2-fluorophenyl)piperidin-1-yl)-8-(trifluoromethyl)-[1,2,4]triazolo[4,3-b]pyridazine] | 4
11 | Fc1ccc([C@@H]2C[C@H]2CNc2cnn3c(CC4CC4)nnc3c2Cl)cc1 [Example 10, 8-Chloro-3-(cyclopropylmethyl)-N-(((1R,2R)-2-(4-fluorophenyl)cyclopropyl)methyl)-[1,2,4]triazolo[4,3-b]pyridazin-7-amine] | 158
12 | CC(C)(C)Cc1nnc2c(Cl)c(N3CCC(c4ccc(F)cc4)CC3)cnn12 [Example 18, 8-Chloro-7-(4-(4-fluorophenyl)piperidin-1-yl)-3-neopentyl-[1,2,4]triazolo[4,3-b]pyridazine] | 145
13 | Clc1c(N2CCC(c3ccccn3)CC2)cnn2c(CC3CC3)nnc12 [Example 79, 8-Chloro-3-(cyclopropylmethyl)-7-(4-(pyridin-2-yl)piperidin-1-yl)-[1,2,4]triazolo[4,3-b]pyridazine] | 382
14 | N#Cc1ccccc1C1CCN(c2cnn3c(CC(F)(F)F)nnc3c2Cl)CC1 [Example 73, 2-(1-(8-chloro-3-(2,2,2-trifluoroethyl)-[1,2,4]triazolo[4,3-b]pyridazin-7-yl)piperidin-4-yl)benzonitrile] | 18
15 | COc1ccccc1[C@@H]1C[C@H]1CNc1cnn2c(CC(F)(F)F)nnc2c1C(F)(F)F (relative stereo) [Example 85, Trans-N-((2-(2-methoxyphenyl)cyclopropyl)methyl)-3-(2,2,2-trifluoroethyl)-8-(trifluoromethyl)-[1,2,4]triazolo[4,3-b]pyridazin-7-amine] | 10
16 | FC(F)(F)c1c(N2CCC(c3ccccc3)CC2)cnn2c(CC3CC3)nnc12 [Example 7, 3-(Cyclopropylmethyl)-7-(4-phenylpiperidin-1-yl)-8-(trifluoromethyl)-[1,2,4]triazolo[4,3-b]pyridazine] | 3

Row | SMILES | EC50 [nM]
17 | Clc1c(NCC2(COc3ccccc3)CC2)cnn2c(CC3CC3)nnc12 [Example 21, 8-Chloro-3-(cyclopropylmethyl)-N-((1-(phenoxymethyl)cyclopropyl)methyl)-[1,2,4]triazolo[4,3-b]pyridazin-7-amine] | 2310
18 | O=C1Oc2ccccc2C12CCN(c1cnn3c(CC(F)(F)F)nnc3c1Cl)CC2 [Example 63, 1′-(8-Chloro-3-(2,2,2-trifluoroethyl)-[1,2,4]triazolo[4,3-b]pyridazin-7-yl)-2H-spiro[benzofuran-3,4′-piperidin]-2-one] | 185
19 | Fc1ccccc1C1CCN(c2ncn3c(CC4CC4)nnc3c2Cl)CC1 [Example 68, 8-Chloro-3-(cyclopropylmethyl)-7-(4-(2-fluorophenyl)piperidin-1-yl)-[1,2,4]triazolo[4,3-c]pyrimidine] | 4
20 | Fc1cccc(C2CCN(c3cnn4c(CC5CC5)nnc4c3Cl)CC2)c1 [Example 24, 8-Chloro-3-(cyclopropylmethyl)-7-(4-(3-fluorophenyl)piperidin-1-yl)-[1,2,4]triazolo[4,3-b]pyridazine] | 25
21 | Clc1ccccc1C1CCN(c2cnn3c(CC4CC4)nnc3c2Cl)CC1 [Example 44, 8-Chloro-7-(4-(2-chlorophenyl)piperidin-1-yl)-3-(cyclopropylmethyl)-[1,2,4]triazolo[4,3-b]pyridazine] | 45
22 | CC(C)(C)Cc1nnc2c(Cl)c(N3CCN(c4ncccn4)CC3)cnn12 [Example 16, 8-Chloro-3-neopentyl-7-(4-(pyrimidin-2-yl)piperazin-1-yl)-[1,2,4]triazolo[4,3-b]pyridazine] | 437
23 | Fc1cc(F)c(OC(F)F)c(C2CCN(c3cnn4c(CC(F)(F)F)nnc4c3Cl)CC2)c1 [Example 55, 8-Chloro-7-(4-(2-(difluoromethoxy)-3,5-difluorophenyl)piperidin-1-yl)-3-(2,2,2-trifluoroethyl)-[1,2,4]triazolo[4,3-b]pyridazine] | 21
24 | Fc1ccc(C2CCN(c3ncn4c(CC(F)(F)F)nnc4c3Cl)CC2)cc1 [Example 69, 8-Chloro-7-(4-(4-fluorophenyl)piperidin-1-yl)-3-(2,2,2-trifluoroethyl)-[1,2,4]triazolo[4,3-c]pyrimidine] | 438
25 | Clc1c(N2CCC(c3ccccc3)CC2)cnn2c(CCC3CC3)nnc12 [Example 59, 8-Chloro-3-(2-cyclopropylethyl)-7-(4-phenylpiperidin-1-yl)-[1,2,4]triazolo[4,3-b]pyridazine] | 121
26 | Cc1c(N2CCC(c3ccccc3)CC2)ncn2c(CC3CC3)nnc12 [Example 2, 3-(Cyclopropylmethyl)-8-methyl-7-(4-phenylpiperidin-1-yl)-[1,2,4]triazolo[4,3-c]pyrimidine] | 62
27 | COc1c(F)ccc(F)c1C1CCN(c2cnn3c(CC4CC4)nnc3c2C(F)(F)F)CC1 [Example 80, 3-(Cyclopropylmethyl)-7-(4-(3,6-difluoro-2-methoxyphenyl)piperidin-1-yl)-8-(trifluoromethyl)-[1,2,4]triazolo[4,3-b]pyridazine] | 0.2
28 | FC(F)(F)c1ccccc1C1CCN(c2cnn3c(CC4CC4)nnc3c2Cl)CC1 [Example 65, 8-Chloro-3-(cyclopropylmethyl)-7-(4-(2-(trifluoromethyl)phenyl)piperidin-1-yl)-[1,2,4]triazolo[4,3-b]pyridazine] | 36
29 | FC(F)(F)Cc1nnc2c(Cl)c(N3CCC(c4ccccc4Cl)CC3)cnn12 [Example 45, 8-Chloro-7-(4-(2-chlorophenyl)piperidin-1-yl)-3-(2,2,2-trifluoroethyl)-[1,2,4]triazolo[4,3-b]pyridazine] | 48
30 | Fc1ccc([C@@H]2C[C@H]2CNc2cnn3c(CC4CC4)nnc3c2Cl)cc1 (racemic) [Example 9, Trans-8-chloro-3-(cyclopropylmethyl)-N-((2-(4-fluorophenyl)cyclopropyl)methyl)-[1,2,4]triazolo[4,3-b]pyridazin-7-amine] | 76
31 | COC(=O)c1ccccc1C1CCN(c2cnn3c(CC4CC4)nnc3c2Cl)CC1 [Example 31, Methyl 2-(1-(8-chloro-3-(cyclopropylmethyl)-[1,2,4]triazolo[4,3-b]pyridazin-7-yl)piperidin-4-yl)benzoate] | 38
